The supplement of paper PMC10307832

Columns and labels:
Assay in all cases: relative viability (nuclei count vs DMSO), 5 days (fraction); higher = more cells survive
H3255 = test system: H3255
Summary of the method: (§1)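 Relative viability equals treated-well nuclei counts divided by vehicle-well nuclei counts. Counts came from 4× images of lung cancer cell lines grown in 1536-well plates for 5 days after pin-tool dosing on the day after seeding. Dosing used one drug alone or a fixed anchor-drug dose plus five library-drug doses (not always all listed) in √10 steps, and values are medians of duplicate plates.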

NCI-H1944 = test system: NCI-H1944
Summary of the method: as §1

NCI-H1915 = test system: NCI-H1915
Summary of the method: as §1

NCI-H661 = test system: NCI-H661
Summary of the method: as §1

ABC-1 = test system: ABC-1
Summary of the method: as §1

NCI-H441 = test system: NCI-H441
Summary of the method: as §1

NCI-H1650 = test system: NCI-H1650
Summary of the method: as §1

NCI-H2087 = test system: NCI-H2087
Summary of the method: as §1

NCI-H2023 = test system: NCI-H2023
Summary of the method: as §1

BEN = test system: BEN
Summary of the method: as §1

CAL-12T = test system: CAL-12T
Summary of the method: as §1

201T = test system: 201T
Summary of the method: as §1

NCI-H460 = test system: NCI-H460
Summary of the method: as §1

NCI-H596 = test system: NCI-H596
Summary of the method: as §1

NCI-H1651 = test system: NCI-H1651
Summary of the method: as §1

NCI-H520 = test system: NCI-H520
Summary of the method: as §1

LC-2-ad = test system: LC-2-ad
Summary of the method: as §1

NCI-H650 = test system: NCI-H650
Summary of the method: as §1

NCI-H727 = test system: NCI-H727
Summary of the method: as §1

LCLC-97TM1 = test system: LCLC-97TM1
Summary of the method: as §1

PC-3 [JPC-3] = test system: PC-3 [JPC-3]
Summary of the method: as §1

A-427 = test system: A-427
Summary of the method: as §1

Question: How did the relative viability (H3255; first compound 0.005 µM) turn out when COc1cc2nccc(Oc3ccc(NC(=O)Nc4cc(C)on4)c(Cl)c3)c2cc1OC [Tivozanib] + Cc1cc(Nc2cc(N3CCN(C)CC3)nc(Sc3ccc(NC(=O)C4CC4)cc3)n2)n[nH]1 [Tozasertib] (partner 0.1 µM) was run?
Answer: 0.745

Question: And the relative viability (H3255; first compound 0.01581 µM)?
Answer: 0.564

Question: What about the relative viability (H3255; first compound 0.05 µM) of the same compound?
Answer: 0.626

Question: What about the relative viability (H3255; first compound 0.1581 µM) of the same compound?
Answer: 0.804

Question: What about the relative viability (H3255; first compound 0.5 µM) of the same compound?
Answer: 0.565

Question: What about the relative viability (NCI-H1944; first compound 0.005 µM) of the same compound?
Answer: 0.251

Question: What about the relative viability (NCI-H1944; first compound 0.01581 µM) of the same compound?
Answer: 0.245

Question: And the relative viability (NCI-H1944; first compound 0.05 µM)?
Answer: 0.257

Question: What about the relative viability (NCI-H1944; first compound 0.1581 µM) of the same compound?
Answer: 0.269

Question: What about the relative viability (NCI-H1944; first compound 0.5 µM) of the same compound?
Answer: 0.297

Question: And the relative viability (NCI-H1915; first compound 0.005 µM)?
Answer: 0.4

Question: And the relative viability (NCI-H1915; first compound 0.01581 µM)?
Answer: 0.439

Question: What about the relative viability (NCI-H1915; first compound 0.05 µM) of the same compound?
Answer: 0.413

Question: What about the relative viability (NCI-H1915; first compound 0.1581 µM) of the same compound?
Answer: 0.511

Question: And the relative viability (NCI-H1915; first compound 0.5 µM)?
Answer: 0.5

Question: What about the relative viability (NCI-H661; first compound 0.005 µM) of the same compound?
Answer: 0.37

Question: What about the relative viability (NCI-H661; first compound 0.01581 µM) of the same compound?
Answer: 0.362

Question: What about the relative viability (NCI-H661; first compound 0.05 µM) of the same compound?
Answer: 0.359

Question: What about the relative viability (NCI-H661; first compound 0.1581 µM) of the same compound?
Answer: 0.363

Question: What about the relative viability (NCI-H661; first compound 0.5 µM) of the same compound?
Answer: 0.363

Question: What about the relative viability (ABC-1; first compound 0.005 µM) of the same compound?
Answer: 0.167

Question: And the relative viability (ABC-1; first compound 0.01581 µM)?
Answer: 0.185

Question: And the relative viability (ABC-1; first compound 0.05 µM)?
Answer: 0.188

Question: And the relative viability (ABC-1; first compound 0.1581 µM)?
Answer: 0.159

Question: And the relative viability (ABC-1; first compound 0.5 µM)?
Answer: 0.168

Question: And the relative viability (NCI-H441; first compound 0.005 µM)?
Answer: 0.682

Question: What about the relative viability (NCI-H441; first compound 0.01581 µM) of the same compound?
Answer: 0.635

Question: What about the relative viability (NCI-H441; first compound 0.05 µM) of the same compound?
Answer: 0.596

Question: What about the relative viability (NCI-H441; first compound 0.1581 µM) of the same compound?
Answer: 0.768

Question: And the relative viability (NCI-H441; first compound 0.5 µM)?
Answer: 0.474

Question: What about the relative viability (NCI-H1650; first compound 0.005 µM) of the same compound?
Answer: 0.445

Question: What about the relative viability (NCI-H1650; first compound 0.01581 µM) of the same compound?
Answer: 0.436

Question: And the relative viability (NCI-H1650; first compound 0.05 µM)?
Answer: 0.421

Question: What about the relative viability (NCI-H1650; first compound 0.1581 µM) of the same compound?
Answer: 0.349

Question: What about the relative viability (NCI-H1650; first compound 0.5 µM) of the same compound?
Answer: 0.422

Question: What about the relative viability (NCI-H2087; first compound 0.005 µM) of the same compound?
Answer: 0.22

Question: What about the relative viability (NCI-H2087; first compound 0.01581 µM) of the same compound?
Answer: 0.316

Question: And the relative viability (NCI-H2087; first compound 0.05 µM)?
Answer: 0.261

Question: What about the relative viability (NCI-H2087; first compound 0.1581 µM) of the same compound?
Answer: 0.338

Question: And the relative viability (NCI-H2087; first compound 0.5 µM)?
Answer: 0.303

Question: And the relative viability (NCI-H2023; first compound 0.005 µM)?
Answer: 0.306

Question: What about the relative viability (NCI-H2023; first compound 0.01581 µM) of the same compound?
Answer: 0.324

Question: What about the relative viability (NCI-H2023; first compound 0.05 µM) of the same compound?
Answer: 0.405

Question: What about the relative viability (NCI-H2023; first compound 0.1581 µM) of the same compound?
Answer: 0.4

Question: What about the relative viability (NCI-H2023; first compound 0.5 µM) of the same compound?
Answer: 0.413

Question: What about the relative viability (BEN; first compound 0.005 µM) of the same compound?
Answer: 0.515

Question: And the relative viability (BEN; first compound 0.01581 µM)?
Answer: 0.425

Question: What about the relative viability (BEN; first compound 0.05 µM) of the same compound?
Answer: 0.572

Question: What about the relative viability (BEN; first compound 0.5 µM) of the same compound?
Answer: 0.542

Question: And the relative viability (CAL-12T; first compound 0.005 µM)?
Answer: 0.281

Question: And the relative viability (CAL-12T; first compound 0.01581 µM)?
Answer: 0.314

Question: What about the relative viability (CAL-12T; first compound 0.05 µM) of the same compound?
Answer: 0.373

Question: What about the relative viability (CAL-12T; first compound 0.1581 µM) of the same compound?
Answer: 0.277

Question: And the relative viability (CAL-12T; first compound 0.5 µM)?
Answer: 0.299

Question: And the relative viability (201T; first compound 0.005 µM)?
Answer: 0.974

Question: What about the relative viability (201T; first compound 0.01581 µM) of the same compound?
Answer: 0.959

Question: What about the relative viability (201T; first compound 0.05 µM) of the same compound?
Answer: 0.981

Question: What about the relative viability (201T; first compound 0.1581 µM) of the same compound?
Answer: 0.985

Question: And the relative viability (201T; first compound 0.5 µM)?
Answer: 0.996

Question: What about the relative viability (NCI-H460; first compound 0.005 µM) of the same compound?
Answer: 0.394

Question: What about the relative viability (NCI-H460; first compound 0.01581 µM) of the same compound?
Answer: 0.394

Question: And the relative viability (NCI-H460; first compound 0.05 µM)?
Answer: 0.536

Question: What about the relative viability (NCI-H460; first compound 0.1581 µM) of the same compound?
Answer: 0.554

Question: And the relative viability (NCI-H460; first compound 0.5 µM)?
Answer: 0.446

Question: What about the relative viability (NCI-H596; first compound 0.005 µM) of the same compound?
Answer: 0.873

Question: And the relative viability (NCI-H596; first compound 0.01581 µM)?
Answer: 0.888

Question: And the relative viability (NCI-H596; first compound 0.05 µM)?
Answer: 0.939

Question: What about the relative viability (NCI-H596; first compound 0.5 µM) of the same compound?
Answer: 0.885

Question: What about the relative viability (NCI-H1651; first compound 0.005 µM) of the same compound?
Answer: 0.698

Question: What about the relative viability (NCI-H1651; first compound 0.01581 µM) of the same compound?
Answer: 0.768

Question: And the relative viability (NCI-H1651; first compound 0.05 µM)?
Answer: 0.758

Question: What about the relative viability (NCI-H1651; first compound 0.1581 µM) of the same compound?
Answer: 0.764

Question: What about the relative viability (NCI-H1651; first compound 0.5 µM) of the same compound?
Answer: 0.565

Question: And the relative viability (NCI-H520; first compound 0.005 µM)?
Answer: 0.402

Question: What about the relative viability (NCI-H520; first compound 0.01581 µM) of the same compound?
Answer: 0.373

Question: And the relative viability (NCI-H520; first compound 0.05 µM)?
Answer: 0.446

Question: What about the relative viability (NCI-H520; first compound 0.1581 µM) of the same compound?
Answer: 0.444

Question: And the relative viability (NCI-H520; first compound 0.5 µM)?
Answer: 0.433

Question: And the relative viability (LC-2-ad; first compound 0.005 µM)?
Answer: 0.408

Question: What about the relative viability (LC-2-ad; first compound 0.01581 µM) of the same compound?
Answer: 0.486

Question: What about the relative viability (LC-2-ad; first compound 0.05 µM) of the same compound?
Answer: 0.484

Question: And the relative viability (LC-2-ad; first compound 0.1581 µM)?
Answer: 0.399

Question: What about the relative viability (LC-2-ad; first compound 0.5 µM) of the same compound?
Answer: 0.408

Question: And the relative viability (NCI-H650; first compound 0.005 µM)?
Answer: 0.763

Question: What about the relative viability (NCI-H650; first compound 0.01581 µM) of the same compound?
Answer: 0.743

Question: What about the relative viability (NCI-H650; first compound 0.05 µM) of the same compound?
Answer: 0.743

Question: What about the relative viability (NCI-H650; first compound 0.1581 µM) of the same compound?
Answer: 0.732

Question: And the relative viability (NCI-H650; first compound 0.5 µM)?
Answer: 0.594

Question: And the relative viability (NCI-H727; first compound 0.005 µM)?
Answer: 0.533

Question: What about the relative viability (NCI-H727; first compound 0.01581 µM) of the same compound?
Answer: 0.649

Question: And the relative viability (NCI-H727; first compound 0.05 µM)?
Answer: 0.588

Question: And the relative viability (NCI-H727; first compound 0.1581 µM)?
Answer: 0.635

Question: And the relative viability (NCI-H727; first compound 0.5 µM)?
Answer: 0.886

Question: And the relative viability (LCLC-97TM1; first compound 0.005 µM)?
Answer: 0.236

Question: What about the relative viability (LCLC-97TM1; first compound 0.01581 µM) of the same compound?
Answer: 0.168

Question: And the relative viability (LCLC-97TM1; first compound 0.05 µM)?
Answer: 0.274

Question: And the relative viability (LCLC-97TM1; first compound 0.1581 µM)?
Answer: 0.357

Question: And the relative viability (LCLC-97TM1; first compound 0.5 µM)?
Answer: 0.197

Question: And the relative viability (PC-3 [JPC-3]; first compound 0.005 µM)?
Answer: 0.802

Question: What about the relative viability (PC-3 [JPC-3]; first compound 0.01581 µM) of the same compound?
Answer: 0.869

Question: What about the relative viability (PC-3 [JPC-3]; first compound 0.05 µM) of the same compound?
Answer: 0.94

Question: And the relative viability (PC-3 [JPC-3]; first compound 0.1581 µM)?
Answer: 0.77

Question: And the relative viability (PC-3 [JPC-3]; first compound 0.5 µM)?
Answer: 0.837

Question: What about the relative viability (A-427; first compound 0.005 µM) of the same compound?
Answer: 0.179

Question: And the relative viability (A-427; first compound 0.01581 µM)?
Answer: 0.23

Question: And the relative viability (A-427; first compound 0.05 µM)?
Answer: 0.251

Question: And the relative viability (A-427; first compound 0.1581 µM)?
Answer: 0.281

Question: What about the relative viability (A-427; first compound 0.5 µM) of the same compound?
Answer: 0.207
